The term EC50 denotes the concentration needed to bring the measured effect to its halfway point. A lower EC50 goes with greater potency.

The structures appear in SMILES notation.

The experiment is described as follows: Effective concentration in vitro against HIV-1-infected CEM cells relative to uninfected untreated controls.
For the compound `CO[C@@H]1N(C2CC(N=[N+]=[N-])C(CO)O2)C(=O)NC(=O)[C@@]1(C)Br` (stereo partly specified), the EC50 turned out to be 280 nM. In turn, `CC1(Cl)C(=O)NC(=O)N([C@H]2C[C@H](N=[N+]=[N-])[C@@H](CO)O2)C1N=[N+]=[N-]` (stereo partly specified) showed an EC50 of 1490 nM.

Turning to `CO[C@@H]1N(C2CC(N=[N+]=[N-])C(CO)O2)C(=O)NC(=O)[C@@]1(C)I` (stereo partly specified), the response was half-maximal at 5.15 nM (EC50). In the case of `CC1(Br)C(=O)NC(=O)N([C@H]2C[C@H](N=[N+]=[N-])[C@@H](CO)O2)C1N=[N+]=[N-]` (stereo partly specified), the EC50 was 200000 nM.

As for `CCCCCCCCO[C@H]1N(C2CC(N=[N+]=[N-])C(CO)O2)C(=O)NC(=O)[C@]1(C)Br` (stereo partly specified), the EC50 was 865 nM. For `CO[C@H]1N([C@H]2C[C@H](N=[N+]=[N-])[C@@H](CO)O2)C(=O)NC(=O)C1(C)Cl` (stereo partly specified) the value was 5790 nM; for `CO[C@H]1N(C2CC(N=[N+]=[N-])C(CO)O2)C(=O)NC(=O)[C@]1(C)Br` (stereo partly specified), 3.27 nM; for `CCO[C@H]1N(C2CC(N=[N+]=[N-])C(CO)O2)C(=O)NC(=O)[C@]1(C)Br` (stereo partly specified), 6.75 nM. Take `CCO[C@@H]1N(C2CC(N=[N+]=[N-])C(CO)O2)C(=O)NC(=O)[C@@]1(C)Br` (stereo partly specified): the EC50 was determined as 23.7 nM. On to `CO[C@H]1N(C2CC(N=[N+]=[N-])C(CO)O2)C(=O)NC(=O)[C@]1(C)I` (stereo partly specified), for which the EC50 is 3.17 nM. Compound `CC(C)O[C@H]1N(C2CC(N=[N+]=[N-])C(CO)O2)C(=O)NC(=O)[C@]1(C)Br` (stereo partly specified) had a 50% effective concentration (EC50) of 5720 nM. This EC50 lies about 1800-fold higher than the previous one.

The record behind these values is BindingDB's records for doi:10.1021/jm00051a006 (University of Alberta, 1995).
